We go through 16 molecules from ChEMBL document CHEMBL1201862, “PubChem BioAssay data set” (2004).

For orientation: AC50 means the concentration at which the activity in the assay is half-maximal. As usually defined, the IC50 is the midpoint of a concentration-inhibition curve.

Calls of active or inactive are those of the source.

Chain of Paired box protein Pax-8 (Q06710 whole entry): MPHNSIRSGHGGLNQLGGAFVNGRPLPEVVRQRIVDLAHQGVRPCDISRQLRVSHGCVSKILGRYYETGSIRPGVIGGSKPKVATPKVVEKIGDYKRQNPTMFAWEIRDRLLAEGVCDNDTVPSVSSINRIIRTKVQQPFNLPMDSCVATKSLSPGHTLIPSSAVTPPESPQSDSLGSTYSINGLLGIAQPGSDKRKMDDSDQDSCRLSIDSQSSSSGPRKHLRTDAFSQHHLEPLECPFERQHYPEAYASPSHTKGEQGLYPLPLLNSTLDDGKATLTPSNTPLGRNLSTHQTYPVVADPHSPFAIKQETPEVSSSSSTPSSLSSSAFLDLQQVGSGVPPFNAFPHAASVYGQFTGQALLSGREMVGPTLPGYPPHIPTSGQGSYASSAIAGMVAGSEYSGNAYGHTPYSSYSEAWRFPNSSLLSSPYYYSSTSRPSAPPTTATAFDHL
Chain of FAD-linked sulfhydryl oxidase ALR (P55789 whole entry): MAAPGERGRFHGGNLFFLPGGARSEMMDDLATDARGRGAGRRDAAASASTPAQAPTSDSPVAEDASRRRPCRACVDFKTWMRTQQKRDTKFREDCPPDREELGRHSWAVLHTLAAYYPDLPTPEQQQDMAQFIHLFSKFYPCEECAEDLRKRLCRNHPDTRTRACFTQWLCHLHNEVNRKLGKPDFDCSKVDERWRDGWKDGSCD

The first experiment concerns the target FAD-linked sulfhydryl oxidase ALR (Homo sapiens, UniProt P55789). The experiment can be described thus: inhibitors of human ALR sulfhydryl oxidase, dose response, biochemical, H2O2 detection, luminescence, cherry-pick (AID 493248).
Conditions: not given
Take `CC(C)(C)c1ccc(Oc2ccc(NC(=O)CCCC(=O)O)cn2)cc1`: the concentration at half-maximal activity (AC50) was 1.49 µM (active).

System in another experiment: not listed separately
The experiment can be described thus: MC4R antagonists, dose response, counter-screen for LGR2 antagonist project, cell-based, plate reader, cherry pick (AID 743444).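 Further: transfected HEK 293 cells stimulated with alpha-MSH peptide; potency of inhibitors of the alpha-MSH evoked signal.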 The experiment is classed as functional.
Conditions: not given
For orientation: Counterscreens check selectivity or assay interference.
Regarding `OC1CCC(Nc2ccn3nc(-c4cccc(OCc5ccccc5)c4)cc3n2)CC1` (stereo not drawn), the AC50 is 37.1 µM (active).

The next experiment addresses Paired box protein Pax-8 (Homo sapiens, UniProt Q06710). The experiment can be described thus: inhibitors of PAX8-driven TPO luciferase reporter, dose response, RMG-I cells, cherry-pick (AID 687027).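 Further: luciferase reporter driven by Pax8 target thyroperoxidase promoter measured by SteadyGlo luminescence.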 The class given is functional, cell-based.
Conditions: not given
On the technique in general: Reporter assays use an easily measured gene product as a stand-in for the process of interest.
For the molecule `COc1ccc2c3c(n(C)c2c1)[C@@H](CO)N(C(=O)Nc1ccc(F)cc1)CC31CCN(S(=O)(=O)c2cccc(C)c2)CC1`, the AC50 is 5.97 µM (active).
On to `O=C(C[C@@H]1C[C@@H]2c3cc(NC(=O)Cc4ccncc4)ccc3O[C@@H]2[C@H](CO)O1)NCc1ccc(-c2ccccc2)cc1`, for which the AC50 is 13.3 µM (active).
On the same count and under the same terms, then `C[C@H]1CN([C@@H](C)CO)C(=O)Cc2cc(NC(=O)NC3CCCCC3)ccc2O[C@H]1CN(C)S(=O)(=O)c1ccc(Cl)cc1`, with 11.9 µM (active).

Another experiment deals with HEK293. The experiment can be described thus: inhibitors of LMP1-driven NF-kB reporter, dose response, cell-based, HEK293, luciferase, cherry-pick (AID 588343). Particulars: Homo sapiens. The class given is functional.
As for `COc1ccc(Nc2oc(COc3ccc(Cl)cc3)nc2C#N)cc1`, the half-maximal activity concentration (AC50) is 4.08 µM (active).
The same measure, in the same setting: then `COC(=O)c1sc(NC(=O)c2ccc(OC)cc2OC)nc1C`, with 0.545 µM (active).
Still for that read-out and setting: in the case of `Cc1ccnc(NC(=O)c2sc3ccccc3c2Cl)c1` it was 1.46 µM (active).

Another experiment deals with T1, Fatty acid synthase (Homo sapiens, UniProt P49327). Nature of the experiment: FAS thioesterase domain inhibitors, dose response, biochemical, kinetic fluorescence intensity (AID 624326).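 Further: rate of fluorescence rise from hydrolysis of a fluorogenic O-methyl fluorescein ester substrate.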
T1 sequence (P49327 whole entry, the tested form may be a part): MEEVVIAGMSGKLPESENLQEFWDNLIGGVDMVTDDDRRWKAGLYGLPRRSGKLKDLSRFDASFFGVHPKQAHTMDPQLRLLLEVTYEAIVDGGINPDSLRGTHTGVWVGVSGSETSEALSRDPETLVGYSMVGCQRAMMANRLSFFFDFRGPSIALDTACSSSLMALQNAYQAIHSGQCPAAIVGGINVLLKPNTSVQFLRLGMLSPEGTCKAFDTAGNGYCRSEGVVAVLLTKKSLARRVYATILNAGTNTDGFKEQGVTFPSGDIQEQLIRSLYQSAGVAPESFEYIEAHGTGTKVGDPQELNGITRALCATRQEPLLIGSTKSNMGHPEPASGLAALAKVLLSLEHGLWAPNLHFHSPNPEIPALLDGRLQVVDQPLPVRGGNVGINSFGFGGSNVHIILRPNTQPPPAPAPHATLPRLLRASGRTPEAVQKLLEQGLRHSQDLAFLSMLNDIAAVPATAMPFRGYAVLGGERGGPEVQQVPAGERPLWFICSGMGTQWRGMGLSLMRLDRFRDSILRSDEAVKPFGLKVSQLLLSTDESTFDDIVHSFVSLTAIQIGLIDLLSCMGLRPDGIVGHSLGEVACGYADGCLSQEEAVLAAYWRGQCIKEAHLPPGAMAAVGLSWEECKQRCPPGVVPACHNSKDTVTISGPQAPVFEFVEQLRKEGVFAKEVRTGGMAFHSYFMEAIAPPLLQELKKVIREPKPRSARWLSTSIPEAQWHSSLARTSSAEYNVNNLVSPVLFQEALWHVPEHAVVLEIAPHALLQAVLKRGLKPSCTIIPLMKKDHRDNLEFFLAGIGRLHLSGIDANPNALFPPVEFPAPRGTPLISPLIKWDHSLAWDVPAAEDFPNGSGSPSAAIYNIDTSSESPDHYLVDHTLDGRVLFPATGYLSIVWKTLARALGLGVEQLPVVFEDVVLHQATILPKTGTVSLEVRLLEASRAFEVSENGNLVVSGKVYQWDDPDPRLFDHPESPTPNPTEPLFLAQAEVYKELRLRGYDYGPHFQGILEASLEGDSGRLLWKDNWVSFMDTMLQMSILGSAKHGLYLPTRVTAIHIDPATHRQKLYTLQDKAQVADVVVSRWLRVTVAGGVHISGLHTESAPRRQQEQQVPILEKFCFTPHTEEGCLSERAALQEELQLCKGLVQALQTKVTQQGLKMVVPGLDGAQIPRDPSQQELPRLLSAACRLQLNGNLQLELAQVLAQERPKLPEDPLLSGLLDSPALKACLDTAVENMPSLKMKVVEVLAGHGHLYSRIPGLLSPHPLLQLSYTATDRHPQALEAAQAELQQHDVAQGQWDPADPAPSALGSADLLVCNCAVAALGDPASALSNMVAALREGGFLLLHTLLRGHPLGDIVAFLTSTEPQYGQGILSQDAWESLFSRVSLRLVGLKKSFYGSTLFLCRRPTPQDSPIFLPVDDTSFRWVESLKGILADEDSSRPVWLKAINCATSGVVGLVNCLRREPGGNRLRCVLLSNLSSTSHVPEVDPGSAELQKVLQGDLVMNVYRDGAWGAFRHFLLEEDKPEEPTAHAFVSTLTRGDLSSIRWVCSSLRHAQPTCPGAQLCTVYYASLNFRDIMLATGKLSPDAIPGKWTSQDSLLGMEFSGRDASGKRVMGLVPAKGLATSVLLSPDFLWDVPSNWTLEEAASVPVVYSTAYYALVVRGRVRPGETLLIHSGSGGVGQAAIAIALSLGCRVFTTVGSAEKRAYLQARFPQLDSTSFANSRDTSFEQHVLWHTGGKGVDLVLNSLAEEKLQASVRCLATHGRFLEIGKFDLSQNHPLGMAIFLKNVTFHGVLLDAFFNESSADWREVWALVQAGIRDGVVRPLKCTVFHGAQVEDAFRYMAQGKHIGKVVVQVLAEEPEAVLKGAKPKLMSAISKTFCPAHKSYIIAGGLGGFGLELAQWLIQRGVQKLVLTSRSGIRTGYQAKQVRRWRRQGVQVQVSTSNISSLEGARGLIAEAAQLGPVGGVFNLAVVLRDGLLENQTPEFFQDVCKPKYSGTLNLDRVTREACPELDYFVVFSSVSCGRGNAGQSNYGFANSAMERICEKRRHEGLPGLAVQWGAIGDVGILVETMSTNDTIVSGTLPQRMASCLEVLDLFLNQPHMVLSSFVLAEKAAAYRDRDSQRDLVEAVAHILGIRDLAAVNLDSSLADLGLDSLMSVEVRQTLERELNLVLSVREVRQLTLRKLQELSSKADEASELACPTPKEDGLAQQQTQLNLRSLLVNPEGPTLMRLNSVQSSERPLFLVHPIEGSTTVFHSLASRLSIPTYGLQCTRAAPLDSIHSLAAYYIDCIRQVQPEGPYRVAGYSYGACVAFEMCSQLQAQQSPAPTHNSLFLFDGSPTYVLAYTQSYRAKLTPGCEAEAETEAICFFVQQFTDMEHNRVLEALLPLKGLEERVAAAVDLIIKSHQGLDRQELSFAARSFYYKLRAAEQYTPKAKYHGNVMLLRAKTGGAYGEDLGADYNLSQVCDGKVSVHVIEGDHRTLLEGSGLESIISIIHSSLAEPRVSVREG
Conditions: not given
The class given is functional.
Turning to `O=C(CCNc1ccc(Br)cc1)c1cccc([N+](=O)[O-])c1`, the half-maximal inhibitory concentration (IC50) was 7.64 µM (active).
The same measure, in the same setting: in the case of `COc1ccc(C(=O)OC(C)C(=O)NC(C)CCc2ccccc2)cc1[N+](=O)[O-]` (stereo not drawn) it was 17.9 µM (active).
Take `O=C(COC(=O)c1cc([N+](=O)[O-])ccc1N1CCOCC1)NCc1ccc(F)cc1`: the half-maximal inhibitory concentration (IC50) was 1.33 µM (active).
Regarding `Cc1c(Br)c([N+](=O)[O-])nn1CCCC(=O)N1CCN(c2ccccc2)CC1`, the IC50 was 13.1 µM (active).
Take `N#CC1(NC(=O)COC(=O)c2cc([N+](=O)[O-])ccc2N2CCOCC2)CCCCC1`: the IC50 was 2.59 µM (active).
The same measure, in the same setting: then `O=C(Cn1nc(-c2ccco2)ccc1=O)Nc1ccc(Cl)c(Cl)c1`, with 12.4 µM (active); and `CCOC(=O)C1CCN(C(=O)c2ccc3c(=O)n4nc(Nc5ccccc5OC)sc4nc3c2)CC1`, with 11.8 µM (active).
Still for that read-out and setting: then `O=C(C[C@H]1C[C@H](C(=O)N2CCOCC2)[C@@]2(CCC3CCCC3)c3[nH]c4ccc(Cl)cc4c3CCN2C1=O)NCCN1CCOCC1`, with 2.26 µM (active).

System in a further experiment: not listed separately
Nature of the experiment: LGR2 antagonists, dose response, cell-based, HEK293, CRE-luciferase reporter, cherry pick, set 2 (AID 743343).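 Further: transfected cells were stimulated with diluted bursicon conditioned medium after compound addition.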 The class given is functional.
Conditions: not given
For the molecule `OC1CCC(Nc2ccn3nc(-c4cccc(OCc5ccccc5)c4)cc3n2)CC1` (stereo not drawn), the AC50 was 34.3 µM (active).

The target in a further experiment is T2, Coagulation factor XII (Homo sapiens, UniProt P00748).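 Further: activated factor XIIa alpha cleaving a fluorogenic AMC peptide substrate; inhibitor potency from loss of enzyme activity.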
T2 sequence (P00748 whole entry): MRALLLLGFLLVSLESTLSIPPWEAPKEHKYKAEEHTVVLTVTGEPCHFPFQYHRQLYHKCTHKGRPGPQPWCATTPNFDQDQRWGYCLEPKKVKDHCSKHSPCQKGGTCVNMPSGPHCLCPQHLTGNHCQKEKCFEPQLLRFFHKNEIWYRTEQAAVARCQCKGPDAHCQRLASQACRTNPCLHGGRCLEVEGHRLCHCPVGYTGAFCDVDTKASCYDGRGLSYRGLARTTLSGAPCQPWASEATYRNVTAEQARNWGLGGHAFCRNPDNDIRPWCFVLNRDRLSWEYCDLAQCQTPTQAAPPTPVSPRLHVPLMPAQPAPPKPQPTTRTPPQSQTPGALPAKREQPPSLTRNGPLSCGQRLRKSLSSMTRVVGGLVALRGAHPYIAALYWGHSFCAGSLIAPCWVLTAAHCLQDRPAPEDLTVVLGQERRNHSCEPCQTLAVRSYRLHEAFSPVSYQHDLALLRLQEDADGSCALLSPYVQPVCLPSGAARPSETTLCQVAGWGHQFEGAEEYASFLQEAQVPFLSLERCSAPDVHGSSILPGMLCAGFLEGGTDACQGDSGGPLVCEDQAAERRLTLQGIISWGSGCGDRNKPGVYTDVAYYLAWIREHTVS
Assay: not given
The class given is functional.
Conditions: not given
As for `CC(C)(C)c1ccc(Oc2ccc(NC(=O)CCCC(=O)O)cn2)cc1`, the IC50 is > 50 µM (inactive).

A further experiment has as its target T3, Corticotropin-releasing factor receptor 2/Corticotropin-releasing factor-binding protein (Homo sapiens, UniProt P24387+Q13324).
T3 sequence (Q13324 whole entry): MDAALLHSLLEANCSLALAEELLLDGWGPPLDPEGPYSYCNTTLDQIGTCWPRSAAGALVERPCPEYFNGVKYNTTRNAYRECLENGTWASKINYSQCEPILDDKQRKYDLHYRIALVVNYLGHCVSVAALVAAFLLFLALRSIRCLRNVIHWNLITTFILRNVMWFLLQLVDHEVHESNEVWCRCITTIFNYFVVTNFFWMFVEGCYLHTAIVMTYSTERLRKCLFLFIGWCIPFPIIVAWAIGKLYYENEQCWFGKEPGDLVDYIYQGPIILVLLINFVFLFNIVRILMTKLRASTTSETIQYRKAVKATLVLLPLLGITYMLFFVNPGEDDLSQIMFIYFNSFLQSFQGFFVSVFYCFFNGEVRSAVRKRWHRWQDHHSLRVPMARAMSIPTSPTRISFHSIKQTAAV
T3 sequence (P24387 whole entry): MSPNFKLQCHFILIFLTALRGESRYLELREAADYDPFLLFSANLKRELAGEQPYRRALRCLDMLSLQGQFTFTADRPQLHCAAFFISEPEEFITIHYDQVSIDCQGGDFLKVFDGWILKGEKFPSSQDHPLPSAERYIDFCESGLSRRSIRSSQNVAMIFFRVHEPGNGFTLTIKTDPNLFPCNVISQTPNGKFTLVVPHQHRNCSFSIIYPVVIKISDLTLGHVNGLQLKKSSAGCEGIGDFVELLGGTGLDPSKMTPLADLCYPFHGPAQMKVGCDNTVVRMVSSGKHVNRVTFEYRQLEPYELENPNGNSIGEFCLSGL
The experiment can be described thus: activators of CRF receptor 2 with binding protein – uHTS hits, confirmation (AID 602473). The class given is functional. To be noted: read-out: EC50_Mean.
Turning to `O=C(C[C@H]1C[C@H](C(=O)N2CCOCC2)[C@@]2(CCC3CCCC3)c3[nH]c4ccc(Cl)cc4c3CCN2C1=O)NCCN1CCOCC1`, the EC50 was > 53 µM (inactive).

System in another experiment: not listed separately
Nature of the experiment: NIH:OVCAR-3 ovarian cancer cell cytotoxicity, dose response, PAX8 inhibitor project, plate reader, dry powder samples (AID 743044). The experiment is classed as functional, cell-based.
Conditions: not given
Turning to `COc1ccc2c3c(n(C)c2c1)[C@@H](CO)N(C(=O)Nc1ccc(F)cc1)CC31CCN(S(=O)(=O)c2cccc(C)c2)CC1`, the half-maximal activity concentration (AC50) is 64 µM (active).
Same read-out and setting: then `O=C(C[C@@H]1C[C@@H]2c3cc(NC(=O)Cc4ccncc4)ccc3O[C@@H]2[C@H](CO)O1)NCc1ccc(-c2ccccc2)cc1`, with 37.8 µM (active); and `C[C@H]1CN([C@@H](C)CO)C(=O)Cc2cc(NC(=O)NC3CCCCC3)ccc2O[C@H]1CN(C)S(=O)(=O)c1ccc(Cl)cc1`, with 13.5 µM (active).

System in another experiment: not listed separately
The experiment can be described thus: Luminescence Cell-Based Dose Confirmation HTS to Identify Inhibitors of Platelet Dense Granule Release. [Related pubchem assays: 1663 (Primary HTS), 1678 (Summary of Project)]. The experiment is classed as functional.
Conditions: not given
Consider `COC(=O)c1sc(NC(=O)c2ccc(OC)cc2OC)nc1C`, for which the EC50 was 0.749 µM (active).

Another experiment has as its system H9c2. The experiment can be described thus: cells. The class given is functional, cell-based. Particulars: Rattus norvegicus, H9c2, Myocardium.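 Further: confirmatory concentration-response retest of ultra-high-throughput screening hits for modulation of myocardial damage; cell death induced by hydrogen peroxide oxidative stress; compound pretreatment for 60 min then peroxide exposure for 2 h; potency is for protecting the cells against peroxide damage rather than for killing them.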
On to `CCOC(=O)C1CCN(C(=O)c2ccc3c(=O)n4nc(Nc5ccccc5OC)sc4nc3c2)CC1`, for which the IC50 was > 79 µM (inactive).

The target of another experiment is Luciferin 4-monooxygenase (Photinus pyralis, UniProt P08659). Nature of the experiment: firefly luciferase enzyme inhibitors, dose response, biochemical, luminescence (AID 1891).
Chain of Luciferin 4-monooxygenase (P08659 whole entry): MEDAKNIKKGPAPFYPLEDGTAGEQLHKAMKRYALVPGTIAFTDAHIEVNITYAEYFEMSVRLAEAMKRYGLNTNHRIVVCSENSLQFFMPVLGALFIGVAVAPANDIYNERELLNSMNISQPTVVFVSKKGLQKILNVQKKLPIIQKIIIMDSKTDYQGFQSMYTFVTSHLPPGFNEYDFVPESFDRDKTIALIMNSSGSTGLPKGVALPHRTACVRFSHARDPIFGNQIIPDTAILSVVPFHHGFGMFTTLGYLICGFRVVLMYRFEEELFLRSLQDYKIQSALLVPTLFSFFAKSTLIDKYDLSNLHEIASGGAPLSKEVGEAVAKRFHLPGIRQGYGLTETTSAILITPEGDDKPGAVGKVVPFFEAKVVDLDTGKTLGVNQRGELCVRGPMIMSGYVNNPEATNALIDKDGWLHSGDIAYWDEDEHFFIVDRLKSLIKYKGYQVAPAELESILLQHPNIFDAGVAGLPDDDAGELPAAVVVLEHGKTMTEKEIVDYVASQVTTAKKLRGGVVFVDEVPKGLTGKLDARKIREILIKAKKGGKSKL
Conditions: not given
With `COC(=O)c1sc(NC(=O)c2ccc(OC)cc2OC)nc1C`, the EC50 is 0.251 µM (active).

For another experiment, the target named is T1, Fatty acid synthase. The experiment can be described thus: FAS thioesterase domain inhibitors, dose response, biochemical, endpoint fluorescence intensity, uHTS hits (AID 624327).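 Further: fluorescence from hydrolysis of an O-methyl fluorescein acyl ester substrate by the enzyme.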 The experiment is classed as functional.
Conditions: not given
Consider `O=C(CCNc1ccc(Br)cc1)c1cccc([N+](=O)[O-])c1`, for which the IC50 was 13.3 µM (active).
For `COc1ccc(C(=O)OC(C)C(=O)NC(C)CCc2ccccc2)cc1[N+](=O)[O-]` (stereo not drawn), the IC50 was 19.1 µM (active).
On the same count and under the same terms, in the case of `O=C(COC(=O)c1cc([N+](=O)[O-])ccc1N1CCOCC1)NCc1ccc(F)cc1` it was 1.44 µM (active); in that of `Cc1c(Br)c([N+](=O)[O-])nn1CCCC(=O)N1CCN(c2ccccc2)CC1`, 11.6 µM (active).
For the molecule `N#CC1(NC(=O)COC(=O)c2cc([N+](=O)[O-])ccc2N2CCOCC2)CCCCC1`, the IC50 was 3.79 µM (active).
On the same count and under the same terms, in the case of `O=C(Cn1nc(-c2ccco2)ccc1=O)Nc1ccc(Cl)c(Cl)c1` it was 13.1 µM (active); in that of `CCOC(=O)C1CCN(C(=O)c2ccc3c(=O)n4nc(Nc5ccccc5OC)sc4nc3c2)CC1`, 12.4 µM (active); in that of `O=C(C[C@H]1C[C@H](C(=O)N2CCOCC2)[C@@]2(CCC3CCCC3)c3[nH]c4ccc(Cl)cc4c3CCN2C1=O)NCCN1CCOCC1`, 2.04 µM (active).
